Holding throughout (format): in vivo
In series [1] the test system is mouse transplantable Heps solid tumor. Description: Effects of oral administration of the compound powder on mouse Heps solid tumor. The settings on record: for Inhibition rate / Tumor weight (g) (X ± SD): mouse Heps solid tumor; for Weight (g) Beginning: body weight at beginning; for Weight (g) Beginning / Weight (g) End: Heps; for Weight (g) End: body weight at end. The procedure:
(§1) A suspension of 10% was prepared from the traditional Chinese medicine compound powder provided by the present invention and then stored in a refrigerator. The suspension would be shaken up before use. Tumor strain: Heps, S180 and ESC were all commercially available products. Animal: Kunming mice provided by the animal laboratories of Shenyang Pharmaceutical University and China Pharmaceutical University. Method: referring to the following literatures: Literature 1: chief editor Xu Shuyun. Methodology of Pharmacological Experiment, Beijing: People's Medical Publishing House 1982, 1115-1125. Literature 2: China Academic Conference on Tumor Pharmacology and Chemotherapy: In-vivo Efficacy Test Procedures of Anticancer Drugs, internal data. 1989. 1. Effects of the Traditional Chinese Medicine Compound Powder on Heps Solid Tumor […]

In series [2] the test system is mouse Ehrlich Ascites Cancer (EAC) solid tumor. Description: Effects of oral administration of the compound powder on mouse Ehrlich Ascites Cancer (EAC) solid tumor. Particulars: Dosage 0.2 ml/10 g × 9. The method, then: as §1, with “1989. 3.” for “1989. 1.”, “on ESC” for “on Heps”
For series [3], the system named is mouse transplantable S180 solid tumor. Description: Effects of oral administration of the compound powder on mouse S180 solid tumor. The settings on record: Dosage 0.2 ml/10 g × 9. The method, then: as §1, with “1989. 2.” for “1989. 1.”, “on S180” for “on Heps”

Values joined by “and” are separate entries in the source; they are usually repeats but may differ in a detail not shown here. Equal values may be shown once.

With `O=c1[nH]cc(F)c(=O)[nH]1` [0.15% 5-Fu, 5-Fu], the Inhibition rate in series [1] (Dosage 0.1 ml/10 g × 8) was 65.75% and 56.62%; in series [1] (Dosage 0.1 ml/10 g × 9) it was 58.55%; in series [2] (mouse EAC solid tumor) it was 64.85% and 66.85% and 65.36%; in series [3] (mouse S180 solid tumor) it was 61.80% and 60.53% and 42.62%. The “Tumor weight (g) (X ± SD)” value in series [1] (Dosage 0.1 ml/10 g × 8) is 1.12 ± 0.85 g and 0.59 ± 0.27 g; in series [1] (Dosage 0.1 ml/10 g × 9) it was 1.05 ± 0.54 g; in series [2] (mouse EAC solid tumor), 1.23 ± 0.43 g and 1.31 ± 0.65 g and 1.33 ± 0.63 g; in series [3] (mouse S180 solid tumor), 1.36 ± 0.44 g and 1.33 ± 0.31 g and 1.87 ± 1.03 g. The “Weight (g) Beginning” value in series [1] (Dosage 0.1 ml/10 g × 8) is 21.30 g and 18.95 g; in series [1] (Dosage 0.1 ml/10 g × 9) it was 21.00 g; in series [2] (body weight at beginning, EAC), 20.90 g and 21.45 g and 20.85 g; in series [3] (body weight at beginning, S180), 21.80 g and 21.30 g and 20.78 g. Besides, the “Weight (g) End” value in series [1] (Dosage 0.1 ml/10 g × 8) was 24.80 g and 20.22 g; in series [1] (Dosage 0.1 ml/10 g × 9), 25.86 g; in series [2] (body weight at end, EAC) it was 26.80 g and 22.20 g and 26.90 g; in series [3] (body weight at end, S180) it was 24.70 g and 23.60 g and 20.00 g.

For the origin of these results see patent US10987389B2, “Anti-tumor traditional Chinese medicine microbial fermentation preparation and a preparation method and application thereof” (priority 2014, dated 2021).
